Test [1] relates to SW620 cells. Kind of test: CCK8 survival assay, SW620 cells overexpressing TRIM25. The class given is cell-based. The note with it: SW620 ctrl, 5-Fu (0, 0.1, 0.5, 1, 3 µM), 72 h. The source says: (§1) Figure 6 TRIM25 ubiquitinates and inactivates USP25. a) The mRNA expression levels of USP25 in human normal colon tissue samples (n = 41) and colorectal adenocarcinoma tissue samples (n = 286 COAD patients) from the Ualcan database. b) The mRNA expression level of USP25 in human colon cell lines and colon carcinoma cell lines through qPCR. c) The protein expression level of USP25 in human colon cell lines and colon carcinoma cell lines through western blot. d) Tissue microarray with representative IHC images showing USP25 protein expression in COAD tumors and adjacent tissues. […] Cell lysates were subjected to HA resin, and the immunoprecipitants were subsequently blotted using the indicated antibodies. f) The protein expression levels of USP25 were evaluated in HEK293T cells transfected with MYC‐TRIM25 or Flag‐HECTD3. g) The effect of cycloheximide (CHX) treatment on USP25 expression levels was analyzed in HEK293T cells transfected with TRIM25 for an indicated duration of time. h) In vivo ubiquitination assays were performed in control and TRIM25 knockdown cells, transfected with indicated plasmids, and treated with MG132 for 4 h before harvesting. […]
(§2) For long‐term proliferation, cells were seeded in triplicate in each well of 96‐well plates at a density of 1000 cells per well. […] The absorbance was measured at 450 nm using the SpectraMax M5 reader (Molecular Devices).
On the technique in general: Tetrazolium assays rely on reduction of a dye to a coloured formazan, in cell work by metabolically active cells.

The subject of test [2] is SW480 cells. Put plainly: CCK8 survival assay, TRIM25 knockdown SW480 cells. The settings on record: ctrl vs USP25-depleted SW480, 5-Fu (0, 0.1, 0.5, 1, 3 µM), 72 h. In kind it is cell-based.
Source text: as §1, §2

With `O=c1[nH]cc(F)c(=O)[nH]1` [5‐Fu, 5‐fluorouracil], in test [1], the “sensitization by TRIM25 overexpression” value was “sensitize to 5‐Fu treatment in ctrl SW620 cells”. In addition, the “resistance by TRIM25 knockdown” value in test [2] was “resistant to 5‐Fu treatment in ctrl cells but not USP25‐depleted SW480 cells”.

For the origin of these results see PMC11267380, “USP25 Elevates SHLD2‐Mediated DNA Double‐Strand Break Repair and Regulates Chemoresponse in Cancer” (Advanced Science, 2024).
